The text below walks through data of US20040180915A1, “Methadone-containing compositions for parenteral administration and method of use thereof” (priority 2003, published 2004).

Data set [1] in a line: ECG/EKG comparison of QTc intervals in patients on and off treatment. An excerpt:
Applicants' also performed a comparison study involving hundreds of EKG's performed on patients treated with IV methadone versus the EKG's of patients not being treated with the IV methadone.

The conditions of data set [2]: oral vs intramuscular; cited from earlier work.
The conditions of data set [3]: cited from earlier work.
The test system of a further data set is microorganisms. Conditions: cited from earlier work.
The conditions of data set [4]: cited from earlier work. The source holds these as a separate data set.
For data set [5] the following is noted: in vivo; cited from earlier work.
The next data set relates to molds and yeasts. The note with it: relative to activity against bacteria; cited from earlier work.
For data set [6], the system named is gram-positive and gram-negative bacteria. The note with it: cited from earlier work.

Some results are limits rather than exact numbers.

For `CCC(=O)C(CC(C)N(C)C)(c1ccccc1)c1ccccc1` (stereo not drawn) [methadone], the “QTc prolongation after switch from IV route to oral route” value in data set [1] (at least one patient) is listed as “reversed”. For the same compound, the “prolongation in QTc interval times” value in data set [1] (orally ingested methadone in a formulation without chlorobutanol) is reported as “did not show a similar prolongation”. Moreover, the “total analgesic effects, oral relative to same dose intramuscularly” value in data set [2] is reported as “about 50%”. Also, the “time to appreciable concentrations in plasma” value in data set [3] (after subcutaneous injection) was at most 10 min. Further, the “time to detection in blood plasma after ingestion” value in data set [3] (oral) was at most 30 min.
Take `CCCCOC(=O)c1ccc(O)cc1` [Butylparaben]: the “pH range (optimal pH range for activity)” value in the data set on microorganisms is listed as 3.0-9.5. Besides, in data set [4], the water solubility result is on record as “about 0.2%”.
Consider `CC(C)(O)C(Cl)(Cl)Cl` [chlorobutanol], for which the half-life entry in data set [5] is listed as “over 10 days”.
Regarding `COC(=O)c1ccc(O)cc1` [Methylparaben], the “pH range (optimal pH range for activity)” value with microorganisms is given as 3.0-9.5. In the data set with molds and yeasts, the “activity against growth of molds and yeasts” value (shortened to “activity … of molds and yeasts”) is “slightly weaker”. Also, the “activity against growth of gram-positive and gram-negative bacteria” value in data set [6] was “strongly active”.
Turning to Benzalkonium chloride, in the data set with microorganisms, the “pH range (optimal pH range for activity)” value is on record as 4-10. Further, the “activity … of molds and yeasts” value with molds and yeasts was “slightly weaker”. The “activity against growth of gram-positive and gram-negative bacteria” value in data set [6] was “strongly active”.
Consider `C/C=C/C=C/C(=O)O` [Sorbic acid], for which the “pH range (optimal pH range for activity)” value with microorganisms is given as below 6.5. Further, the “activity … of molds and yeasts” value in the data set with molds and yeasts is given as “slightly weaker”. In data set [6], the “activity against growth of gram-positive and gram-negative bacteria” value is “strongly active”.
With `O=C(O)c1ccccc1` [Benzoic acid], the “pH range (optimal pH range for activity)” value with microorganisms is listed as 2-5. Also, the “activity … of molds and yeasts” value in the data set with molds and yeasts is given as “slightly weaker”. For the same compound, the “activity against growth of gram-positive and gram-negative bacteria” value in data set [6] was “strongly active”.
Consider `CCCOC(=O)c1ccc(O)cc1` [Propylparaben], for which the “pH range (optimal pH range for activity)” value in the data set with microorganisms was 3.0-9.5.
Turning to Cetrimide, in the data set on microorganisms, the “pH range (optimal pH range for activity)” value is listed as 4-10. Moreover, in the data set on molds and yeasts, the “activity … of molds and yeasts” value was “slightly weaker”. The “activity against growth of gram-positive and gram-negative bacteria” value in data set [6] is “strongly active”.
